{"source": "patent US20230080477A1", "about": "“PROCESS OF SYNTHESIS OF NOVEL CHROMIUM (III) COMPLEXES OF SCHIFF BASE LIGANDS AND THEIR USE THERE OF AS THERAPEUTIC AGENTS” (priority 2021, published 2023)", "key": {"[1]": {"conditions": "Eastmond et al., 2008; Katz & salem, 1993; cited from earlier work"}, "[2]": {"experiment": "DPPH free radical antioxidant activity assay", "format": "biochemical", "conditions": "dilution 1 ml, wavelength 517 nm; for Inhibition: DPPH assay", "method": "Antioxidant activity of the synthesized Cr(III) Schiff base complexes was tested using the free radical compound 2,2-diphenyl-1-picrylhydrazyl(DPPH) (25,26). This compound has a violet color when dissolved in ethanol and a strong absorption maximum centered at around 515-520 nm. DPPH became colorless or pale yellow when neutralized. An aliquot of DPPH (0.3 ml) in ethanol ([…]) was added to ethanol(3 ml), followed by addition of Cr(III) complex dissolve in ethanol (0.5 ml)(total Volume 3.8 ml). A UV/visible spectrophotometer was used to monitor the color change at 517 nm after 100 minutes of reaction. A blank sample contained a mixture of the Cr(III) complex in ethanol (0.5 ml) and ethanol (3.3 ml) (Total Volume 3.8 ml) without any DPPH (no violet color). A control sample contained a solution of DPPH (0.3 ml) and ethanol (3.5 ml) (total volume 3.8 ml) without any Cr (III) complex (Violet color remains). The amount of scavenging activity (%) was determined by the method of Mensor et al. (27).\nFinally, the % scavenging activities for Schiff base ligands and derived Cr(III) complexes were calculated by applying the formula\nScavenging activity=(Ac−At)/Ac×100%\nWhere Ac and At represent the absorbance of the control and test samples, respectively (Choudhary et al., 2011)^28"}}, "data": [{"smiles": "[Cr+3]", "note": "[Cr(III) ion]", "values": [{"measurement": "Acute toxicity range", "setting": "[1]", "result": "1.5 to 3.3", "unit": "mg/kg"}]}, {"smiles": "Cc1ccc(NC(=O)CC(=O)NNc2cc[nH]c2)cc1", "note": "[Ligand 1]", "values": [{"measurement": "Inhibition", "setting": "[2]", "result": 0.077}, {"measurement": "DPPH Equivalent Antioxidant activity", "setting": "[2]", "result": 1.253}, {"measurement": "Total Antioxidant activity", "setting": "[2]", "result": 65, "unit": "%"}]}, {"smiles": "CC/C=N\\NC(=O)CC(=O)Nc1ccc(C)cc1", "note": "[Ligand 2, N-[4-methylphenyl)-3-oxo-3[(2Z)-2-propylidene hydrazinyl] propanamide]", "values": [{"measurement": "Inhibition", "setting": "[2]", "result": 0.074}, {"measurement": "DPPH Equivalent Antioxidant activity", "setting": "[2]", "result": 1.223}, {"measurement": "Total Antioxidant activity", "setting": "[2]", "result": 66, "unit": "%"}]}]}
